Assay [1] relates to T. pseudonana. As to the kind of experiment: Re-supply experiment, growth via in vivo fluorescence. Type of assay: cell-based, Thalassiosira pseudonana. As to the method:
(§1) A. Re-supply Experiment: For both colimitation experiments (T. pseudonana and P. tricornutum), each remaining culture was split in four just after the protein harvest time point. For the T. pseudonana study, the cultures were re-supplied with either 1) nothing, 2) 100 pM B12, 3) 400 nM Fetotal, or 4) both 100 pM B12 and 400 nM Fe. For the P. tricornutum study, the cultures were re-supplied with either 1) nothing, 2) 100 pM B12, 3) 100 nM Fetotal, or 4) both 100 pM B12 and 100 nM Fe.
(§2) For both studies, each culture was monitored for growth via in vivo fluorescence.

Assay [2] has as its system P. tricornutum. As to the method:
as §1, §2

The test system of assay [3] is P. tricornutum cells. In words: Cobalamin (57Co-B12) uptake rate in P. tricornutum cell lines overexpressing CBA1. Format: cell-based, Phaeodactylum tricornutum. The settings on record: CBA1 overexpression vs wild type and Urease-OE1; exponentially growing cells, B12-replete (100 pM B12), 24 hours. On the procedure:
B12 Uptake Rate Assessments: Inorganic ^57Co was removed from a carrier-free ^57Co-B12 stock solution (MP Biomedicals) via Chelex-100 (Price et al. (1988/1989) “Preparation and Chemistry of the Artificial Algal Culture Medium Aquil,” Biol Oceanogr 6: 443-461) and the remaining solution was used as a radiotracer in cultures of P. tricornutum. Strains (wild type, two cell lines overexpressing CBA1_48322 and one line overexpressing urease) were grown through three successive transfers into media as described above, with 100 pM B12 and 80 μg/mL zeocin added (zeocin not added to wild type). When the cells were in mid-exponential growth in the third transfer, each strain was used to inoculate (3%) three 28 mL polycarbonate tubes containing 20 mL of growth media with 100 pM B12 and 80 μg/mL zeocin and allowed to acclimate for 3 hours. […] B12 uptake was measured by assessing the percentage of added tracer that was taken up into the particulate fraction via gamma counting as previously described (Bertrand et al. (2007) supra) and assuming that total B12 concentrations were 100 pM for the period of uptake. Cell growth was monitored by fluorescence and then translated to cell number via calibration curves created during growth of the 3rd transfer. […]

Read-outs that look alike come from different tables or passages of the source.

With `C/C1=C2/[N-][C@H]([C@H](CC(N)=O)[C@@]2(C)CCC(=O)NC[C@H](C)OP(=O)([O-])O[C@H]2[C@@H](O)[C@@H](n3cnc4cc(C)c(C)cc43)O[C@@H]2CO)[C@]2(C)N=C(/C(C)=C3N=C(/C=C4N=C1[C@@H](CCC(N)=O)C\4(C)C)[C@@H](CCC(N)=O)[C@]\3(C)CC(N)=O)[C@@H](CCC(N)=O)[C@]2(C)CC(N)=O.[Co+2]` (stereo in doubt) [cobalamin], the growth after re-supply result in assay [1] (low cobalamin culture re-supplied with 100 pM B12) was “rescued the growth”. For iron, the growth after re-supply entry in assay [2] (low cobalamin/low Fe culture, iron addition alone (100 nM Fe total)) is on record as “rescued”; in assay [2] (low iron culture re-supplied with 100 nM Fe total) it was “rescued the growth”; in assay [1] (low iron culture re-supplied with 400 nM Fe total), “rescued the growth”.

B1: CBA1: cobalamin acquisition protein of P. tricornutum (isoform Pt48322), overexpressed as a YFP fusion in the native host (protein, listed as Phaeodactylum tricornutum)
chain: DEPPACLTSTADLSVDIFTDKVEPLFSQGWNVTYHNTYKIANNLFDNTTYLLYQCGSTPPADVVDNGNFNAVLEIPLSNVGLSQTPHIGFMEQLELVDEIAAFLTDTDFISSPCFLDEIAAGNVLTLVEPSEGVDAPATGNTALSAGTVAFVASFTQVPFDNTVNIQEYSELTNVAVFEWVKFFSVFFNKEHTANQVVEAAESRFDCVAQNAGAVQADNMPVKPVVLWAYYSDFCGGWDVAECPNYYCEFANACGAEIISSTEGNTTVCGAPYMTTEELVELGKDADHWIYPSSNWDTASETFGEQLQNMKAVQDQQVFDYQASGENAWFEQRYAEYYNVLADFCAVVGTTQPLTGRSWFRNVFTEPVGSLPDCSPTQSANILDDVHICFLPTTGGAAAGGGSGSGGSSAKAIAVGTAALAAGLLSLIHVLLF
modifications: YFP fusion
notes: cobalamin acquisition protein of P. tricornutum (isoform Pt48322), overexpressed as a YFP fusion in the native host
With B1, in assay [3], the “enhancement of cell specific radiolabeled cobalamin uptake rates” value was 2 to 3 fold.

For the origin of these results see patent publication US9758550B2, “Cobalamin acquisition protein and use thereof” (Woods Hole Oceanographic Institution, priority 2012, dated 2017).
